Results on eleven compounds are retold here after ChEMBL document CHEMBL1201862, “PubChem BioAssay data set” (2004).

Molecules are shown by their SMILES.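 Results reflect a 48-hour exposure of cells in 96-well plates to compound at five concentrations. GI50 = concentration required for 50% inhibition of growth.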 Calls of active or inactive are those of the source. Rule as the data show it: active = GI50 up to about 1.1 µM and inactive = higher. Where only a bound is given, the exact number is not on record here.

Holding throughout (experiment): NCI-60 cell line screen, 48 h
Experiment [1] concerns 786-0.
Experiment [2] concerns A498.
Experiment [3] deals with CCRF-CEM.
Experiment [4] has as its system HCC 2998.
Experiment [5] has as its system HCT-116.
The test system of experiment [6] is HOP-92.
The subject of experiment [7] is LOX IMVI.
For experiment [8], the system named is M14.
In experiment [9] the test system is MCF7.
Experiment [10] concerns Malme-3M.
Experiment [11] concerns NCI-H522.
In experiment [12] the test system is NCI/ADR-RES.
In experiment [13] the test system is SF-295.
In experiment [14] the test system is SK-MEL-5.
Experiment [15] relates to SN12C.
Experiment [16] has as its system SNB-75.
For experiment [17], the system named is SR.
The test system of experiment [18] is SW-620.
Experiment [19] deals with SF-539.

For the compound `O=C(O)CCc1c2ccc(=O)c(O)c-2oc2c(O)c(O)ccc12`, the GI50 is 19.4 µM (inactive) in [1]; 46.7 µM (inactive) in experiment [2]; 2.29 µM (inactive) in experiment [3]; 8.55 µM (inactive) in experiment [4]; 18.9 µM (inactive) in [5]; > 100 µM (inactive) in experiment [6]. Also, the GI50 was 20.1 µM (inactive) in [7]; > 100 µM (inactive) in experiment [8]; 14.8 µM (inactive) in experiment [9]; 26.4 µM (inactive) in experiment [10]; 27.4 µM (inactive) in experiment [11]; > 100 µM (inactive) in experiment [12]. The GI50 is 30.7 µM (inactive) in [13]; > 100 µM (inactive) in [14]; 15.9 µM (inactive) in experiment [15]; 24.9 µM (inactive) in experiment [16]; 37.2 µM (inactive) in [17]; 22.2 µM (inactive) in experiment [18].
In the case of `O=C1Nc2ccccc2/C1=N\c1cccc2ncccc12`, the GI50 in [1] is > 100 µM (inactive); in experiment [2] it was > 100 µM (inactive); in [5], 58.7 µM (inactive); in experiment [6], 42.5 µM (inactive); in experiment [7], 27.4 µM (inactive); in experiment [8] it was > 100 µM (inactive). In addition, the GI50 is 50.5 µM (inactive) in [9]; > 100 µM (inactive) in experiment [10]; 28.1 µM (inactive) in experiment [11]; > 100 µM (inactive) in [12]; 53.3 µM (inactive) in experiment [13]; > 100 µM (inactive) in [19]. Besides, the GI50 in experiment [14] is 67 µM (inactive); in experiment [15], > 100 µM (inactive); in [16], 94.8 µM (inactive); in [17], 31.6 µM (inactive); in [18], > 100 µM (inactive).
In the case of `C[N+]1(CCN=C=NC2CCCCC2)CCOCC1`, the GI50 in experiment [1], in experiment [2], in experiment [3], in experiment [5], in [6] and in [7] was > 100 µM (inactive) throughout. Further, the GI50 in experiment [8], in experiment [9], in experiment [10], in experiment [11], in experiment [12] and in experiment [13] was > 100 µM (inactive) throughout. Besides, the GI50 is > 100 µM (inactive) in [19]; > 100 µM (inactive) in experiment [14]; 22.9 µM (inactive) in experiment [15]; > 100 µM (inactive) in experiment [16]; > 100 µM (inactive) in experiment [17]; > 100 µM (inactive) in [18].
As for `O=C(Nc1ccccc1)N(CCN(Cc1ccccc1)C(=O)Nc1ccccc1)CCN(Nc1ccccc1)C(=O)Nc1ccccc1`, the GI50 in experiment [1], in experiment [2], in [3], in [4], in experiment [5] and in experiment [6] was > 100 µM (inactive) each time. Further, the GI50 in experiment [7] is > 100 µM (inactive); in experiment [8], 92.9 µM (inactive); in experiment [9], > 100 µM (inactive); in experiment [10], > 100 µM (inactive); in [11], > 100 µM (inactive); in [12] it was > 100 µM (inactive). In addition, the GI50 in experiment [13], in [14], in [15], in experiment [16], in experiment [17] and in experiment [18] was > 100 µM (inactive) in each case.
As for `CO[C@H](C)[C@](O)(C(=O)OCC1=CCN2CC[C@@H](O)[C@H]12)C(C)C`, the GI50 in experiment [1], in experiment [2], in experiment [3], in experiment [4], in [5] and in experiment [6] was > 100 µM (inactive) each time. Further, the GI50 in experiment [7], in [8], in experiment [9], in [11], in experiment [12] and in experiment [13] was > 100 µM (inactive) throughout. Also, the GI50 in experiment [19], in experiment [14], in [15], in experiment [16], in experiment [17] and in [18] was > 100 µM (inactive) in each case.
Take `Cn1c(=O)c2c(nc(NCCCCl)n2CC(=O)O)n(C)c1=O`: the GI50 in experiment [1], in experiment [2], in [3], in experiment [4], in experiment [5] and in experiment [6] was > 100 µM (inactive) in each case. In addition, the GI50 in [7], in experiment [8], in [9], in [11], in experiment [12] and in experiment [13] was > 100 µM (inactive) in each case. Moreover, the GI50 in experiment [14] is > 100 µM (inactive); in experiment [15] it was > 100 µM (inactive); in experiment [16] it was > 100 µM (inactive); in [17], < 0.01 µM (active); in experiment [18], > 100 µM (inactive).
In the case of `N#Cc1c(Cl)c2ccccc2n2c1nc1ccccc12`, the GI50 in [1] was 19.7 µM (inactive); in experiment [2] it was > 100 µM (inactive); in [3], 11.2 µM (inactive); in experiment [4], 19.6 µM (inactive); in [5], 18.3 µM (inactive); in [6], 19.7 µM (inactive). The GI50 in experiment [7] is 10.8 µM (inactive); in experiment [8], 19.6 µM (inactive); in [9] it was 39.9 µM (inactive); in [12], 23.3 µM (inactive); in experiment [13] it was 59.7 µM (inactive); in experiment [19], 19.4 µM (inactive). In addition, the GI50 in experiment [15] is 25.4 µM (inactive); in experiment [16], 60.4 µM (inactive); in experiment [17], 50 µM (inactive); in [18], 29.1 µM (inactive).
As to `Cc1ccc(C(=O)N/N=C(\N=N\c2ccc(C(=O)O)cc2)c2ccc(N(CCC#N)CCC#N)cc2C)cc1`, the GI50 was > 100 µM (inactive) in experiment [1]; 53.8 µM (inactive) in experiment [2]; > 100 µM (inactive) in experiment [3]; > 100 µM (inactive) in [4]; > 100 µM (inactive) in [5]; > 100 µM (inactive) in [6]. The GI50 in experiment [7], in [8], in experiment [9], in experiment [12], in experiment [13] and in [19] was > 100 µM (inactive) throughout. Further, the GI50 in [14] was > 100 µM (inactive); in experiment [15], > 100 µM (inactive); in [16], 43.9 µM (inactive); in experiment [17] it was > 100 µM (inactive); in experiment [18], > 100 µM (inactive).
For the compound `Clc1cc(-c2csc(Cl)c2)cs1`, the GI50 in experiment [1], in experiment [2], in experiment [3], in experiment [5], in experiment [6] and in experiment [7] was > 100 µM (inactive) throughout. The GI50 in [8], in experiment [9], in experiment [11], in [12], in experiment [13] and in [19] was > 100 µM (inactive) each time. The GI50 in [14], in experiment [15], in [16], in experiment [17] and in [18] was > 100 µM (inactive) each time.
On to `Cc1cc(C)c2c(=O)n(CC(O)CN3CCN(CCOCCO)CC3)sc2n1` (stereo unspecified), for which the GI50 in [1] is 16.9 µM (inactive); in experiment [2], 21.9 µM (inactive); in experiment [3], 11.4 µM (inactive); in experiment [5], 17.1 µM (inactive); in experiment [6], 19.4 µM (inactive); in experiment [7], 18.8 µM (inactive). In addition, the GI50 in experiment [8] was 17.8 µM (inactive); in [9] it was 18.3 µM (inactive); in experiment [10], 18.8 µM (inactive); in [11], 14.6 µM (inactive); in experiment [12] it was > 100 µM (inactive); in experiment [13], > 100 µM (inactive). Also, the GI50 is 20 µM (inactive) in experiment [19]; 15.1 µM (inactive) in experiment [14]; 18.4 µM (inactive) in experiment [15]; 1.65 µM (inactive) in experiment [16]; 25.8 µM (inactive) in [17]; 25.6 µM (inactive) in [18].
As to `COC(=O)C(Cc1ccccc1)NC(=O)CSc1nnc(COc2ccc(Cl)cc2)n1-c1ccccc1` (stereo unspecified), the GI50 is 16.3 µM (inactive) in experiment [1]; 17 µM (inactive) in [2]; 16.8 µM (inactive) in experiment [3]; 5.61 µM (inactive) in [4]; 23.1 µM (inactive) in experiment [5]; 26.4 µM (inactive) in experiment [6]. The GI50 in [7] was 14.6 µM (inactive); in [8], 20.2 µM (inactive); in experiment [9], 23.4 µM (inactive); in experiment [10], 19.7 µM (inactive); in experiment [12], 21.8 µM (inactive); in experiment [19], 22.4 µM (inactive). Also, the GI50 in experiment [14] was 17.1 µM (inactive); in experiment [15] it was 21.2 µM (inactive); in experiment [16], 23.8 µM (inactive); in [17], 5.41 µM (inactive); in [18] it was 35.9 µM (inactive).
